Columns and labels:
[1] = system: Lamp2, Limp2 and Npc1; test: mRNA of lysosomal genes by real-time PCR in mouse primary astrocytes; type: cell-based; conditions: 5 μM aspirin, serum-free
Description: Quantitative Real-Time PCR: The mRNA quantification was performed using the ABIPrism7700 sequence detection system (Applied Biosystems, Foster City, CA) using SYBR Select master mix (Applied Biosystems). The mRNA expression of the targeted genes was normalized to the level of Gapdh mRNA and data was processed by the ABI Sequence Detection System 1.6 software.

[2] = system: Tfeb; test: TFEB protein by immunoblot in mouse primary astrocytes; type: cell-based; conditions: aspirin 2 and 5 μM, 12 h, serum-free
Description: Isolation of Primary Mouse Astroglia: Astroglia were isolated from mixed glial cultures as described (24, 25) according to the procedure of Giulian and Baker (26). Briefly, on day 9, the mixed glial cultures were washed three times with Dulbecco's modified Eagle's medium/F-12 and subjected to shaking at 240 rpm for 2 h at 37° C. on a rotary shaker to remove microglia. After 2 days, the shaking was repeated for 24 h for the removal of oligodendroglia and to ensure the complete removal of all nonastroglial cells. The attached cells were seeded onto new plates for further studies. Immunoblotting: Western blotting was conducted as described earlier (31, 32) with modifications. Briefly, cells were scraped in 1× RIPA buffer, protein was measured using Bradford reagent and sodium dodecyl sulfate (SDS) buffer was added and electrophoresed on NuPAGE® Novex® 4-12% Bis-Tris gels (Invitrogen) and proteins transferred onto a nitrocellulose membrane (Bio-Rad) using the Thermo-Pierce Fast Semi-Dry Blotter. The membrane was then washed for 15 min in TBS plus Tween 20 (TBST) and blocked for 1 hr in TBST containing BSA. […] Densitometric Analysis: Protein blots were analyzed using ImageJ (NIH, Bethesda, Md.) and bands were normalized to their respective β-actin loading controls. […]

[3] = system: PPAR luciferase reporter (PPRE-x3-TK-luc); test: PPAR luciferase reporter (PPRE-x3-TK-luc) in astrocytes; type: cell-based, mouse; conditions: different doses of aspirin, 4 h
Description: FIG. 14(A)-(B) illustrates activation of PPARα by aspirin in primary mouse astrocytes. 14(A) Cells were treated with 5 μM aspirin for different min intervals followed by isolation of nuclear extracts and electrophoretic mobility shift assay for monitoring DNA-binding activity of PPARα using PPARα-binding site of the Tfeb promoter as a probe. 14(B) Astrocytes isolated from wild type, PPARα (−/−) and PPARβ (−/−) mice were transfected with PPAR luciferase reporter (PPRE-x3-TK-luc) plasmid and after 24 h of transfection, cells were stimulated with different doses of aspirin. After 4 h, firefly luciferase activity was measured in total cell extracts. Results are mean +SD of three different experiments. ^ap<0.001 vs control.

[4] = system: mouse primary astrocytes; test: LysoTracker staining of mouse primary astrocytes (lysosomal biogenesis); type: cell-based; conditions: 24 h
Description: [The procedure below names another cell line; the source lists this cell line under the same test.] LysoTracker Staining: Fibroblasts cultured to 70-80% confluence were subjected to different stimuli under reduced serum (2%) DMEM medium followed by incubation with 75 nM LysoTracker Red DND99 (Invitrogen) for 45 mins. Cells were then washed thoroughly with filtered PBS and mounted on glass slides and viewed under BX41 fluorescence microscope

[5] = system: TPP1; test: TPP1 activity assay on cell extract of primary mouse astrocytes; type: cell-based; conditions: 24 h
Description: 12(A) Cells were treated with different concentrations of aspirin for 24 h under serum-free condition followed by Western blot for TPP1. 12(B) Cells were treated with 5 μM aspirin for different time periods under serum-free condition followed by Western blot for TPP1. Actin was run as a house keeping molecule. 12(C) Cells were treated with different concentrations of aspirin for 24 h under serum-free condition followed by TPP1 activity assay using cell extract containing 5 μg of total protein and Ala-Ala-Phe 7-amido-4-methylcoumarin as substrate. Results represent three independent experiments.

[6] = system: Tfeb; test: TFEB mRNA by semi-quantitative RT-PCR in mouse primary astrocytes; type: cell-based; conditions: different concentrations, 5 hr, serum-free
Description: Semi-Quantitative Reverse Transcriptase-Coupled Polymerase Chain Reaction (RT-PCR): Total RNA was isolated from mouse primary astrocytes and human primary astrocytes using RNA-Easy Qiagen (Valencia, CA) kit following manufactures protocol. Semi-quantitative RTPCR was carried out as described earlier (28) using oligo (dT) 12-18 as primer and moloney murine leukemia virus reverse transcriptase (MMLV-RT, Invitrogen) in a 20 μl reaction mixture. The resulting cDNA was appropriately amplified using Promega Master Mix (Madison, WI) and the following primers (Invitrogen) for murine genes: […]
Amplified products were electrophoresed on 2% agarose (Invitrogen) gels and visualized by ethidium bromide (Invitrogen) staining. Glyceraldehyde-3-phosphate dehydrogenase (Gapdh) mRNA was used as a loading control to ascertain that an equivalent amount of cDNA was synthesized from each sample.
Mouse primary astrocytes were incubated with different concentrations (see FIG. 9) of simvastatin and pravastatin (A), (B), cinnamic acid (C), and sodium phenylbutyrate and sodium benzoate (D) for 5 hr. under serum-free condition followed by monitoring the mRNA expression of TFEB by semi-quantitative RT-PCR. Sodium formate (D) was used as a negative control for sodium phenylbutyrate and sodium benzoate.

PPRE-driven luciferase activity ([3]; PPARα (−/−) astrocytes): not PPARα (−/−)
SMILES: CC(=O)Oc1ccccc1C(=O)O [aspirin]
LAMP2 mRNA expression (real-time PCR), time course [1]: time-dependent increase in LAMP2 mRNA
TFEB protein level (Western blot) [2]: able to increase the protein level of TFEB
PPRE-driven luciferase activity ([3]; PPARβ (−/−) astrocytes): increased PPRE-driven luciferase activity
PPRE-driven luciferase activity ([3]; WT astrocytes): increased PPRE-driven luciferase activity
lysosomal biogenesis (lyso-tracker staining) ([4]; PPARα (−/−) astrocytes, 5 μM aspirin): not PPARα (−/−)
lysosomal biogenesis (lyso-tracker staining) ([4]; PPARβ (−/−) astrocytes, 5 μM aspirin): increased lysosomal biogenesis
lysosomal biogenesis (lyso-tracker staining) ([4]; WT astrocytes, 5 μM aspirin): increased lysosomal biogenesis
lysosomal biogenesis (lyso-tracker staining) ([4]; astrocytes, aspirin 10 μM, serum-free): not very potent in increasing lysosomal biogenesis
lysosomal biogenesis (lyso-tracker staining) ([4]; astrocytes, aspirin 2 and 5 μM, serum-free): markedly increased lysosomal biogenesis
TPP1 activity ([5]; aspirin 10 μM): not 10 μM
TPP1 activity ([5]; aspirin 2 and 5 μM): increase in TPP1 activity
TFEB mRNA expression (semi-quantitative RT-PCR) [6]: upregulation of TFEB mRNA expression

From US12023345B2, “Compositions and methods for treating lysosomal disorders” (RUSH UNIVERSITY MEDICAL CENTER, priority 2014, dated 2024)
